For one assay, the target named is T1, ASK1/MAP3K5 (Homo sapiens, UniProt Q99683).
T1 sequence (Q99683 1-1374): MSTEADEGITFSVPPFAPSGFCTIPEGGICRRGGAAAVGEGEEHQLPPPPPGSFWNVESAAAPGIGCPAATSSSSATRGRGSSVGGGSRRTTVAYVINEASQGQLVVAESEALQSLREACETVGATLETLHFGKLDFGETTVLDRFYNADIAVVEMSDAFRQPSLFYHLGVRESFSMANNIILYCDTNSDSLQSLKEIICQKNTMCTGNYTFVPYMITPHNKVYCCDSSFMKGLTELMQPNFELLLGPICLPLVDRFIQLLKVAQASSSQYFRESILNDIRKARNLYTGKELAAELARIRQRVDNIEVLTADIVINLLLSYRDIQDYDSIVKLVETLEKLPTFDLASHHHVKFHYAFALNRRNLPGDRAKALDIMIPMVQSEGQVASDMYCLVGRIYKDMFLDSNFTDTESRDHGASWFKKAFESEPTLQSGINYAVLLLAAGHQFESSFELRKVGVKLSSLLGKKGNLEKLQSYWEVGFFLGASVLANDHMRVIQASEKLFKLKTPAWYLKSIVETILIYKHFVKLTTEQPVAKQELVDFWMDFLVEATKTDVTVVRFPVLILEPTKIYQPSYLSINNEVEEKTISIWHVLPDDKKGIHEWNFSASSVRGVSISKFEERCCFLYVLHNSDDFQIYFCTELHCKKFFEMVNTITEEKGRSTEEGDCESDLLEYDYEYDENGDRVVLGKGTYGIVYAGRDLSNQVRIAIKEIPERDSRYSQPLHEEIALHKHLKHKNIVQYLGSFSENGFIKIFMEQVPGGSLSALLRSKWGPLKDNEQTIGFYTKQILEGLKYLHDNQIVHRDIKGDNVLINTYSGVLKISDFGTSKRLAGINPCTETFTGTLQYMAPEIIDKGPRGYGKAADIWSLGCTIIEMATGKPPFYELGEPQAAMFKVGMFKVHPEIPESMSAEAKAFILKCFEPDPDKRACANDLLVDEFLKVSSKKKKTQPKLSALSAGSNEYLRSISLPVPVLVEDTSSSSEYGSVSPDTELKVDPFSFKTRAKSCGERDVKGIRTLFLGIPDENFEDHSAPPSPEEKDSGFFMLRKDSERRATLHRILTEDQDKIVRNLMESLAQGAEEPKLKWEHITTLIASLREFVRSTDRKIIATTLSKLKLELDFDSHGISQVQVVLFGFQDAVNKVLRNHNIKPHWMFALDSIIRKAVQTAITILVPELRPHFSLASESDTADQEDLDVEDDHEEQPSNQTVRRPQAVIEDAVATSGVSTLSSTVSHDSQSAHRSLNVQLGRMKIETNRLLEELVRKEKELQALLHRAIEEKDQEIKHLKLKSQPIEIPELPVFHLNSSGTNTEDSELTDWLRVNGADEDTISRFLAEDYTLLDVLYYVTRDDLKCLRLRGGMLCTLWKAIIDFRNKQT
The assay is described as follows: ASK1/MAP3K5 kinase assay by Reaction Biology Corp. (headed ASK1 TR-FRET Assay). The class given is biochemical. The conditions noted are these: 20 μM myelin basic protein, 10 μM ATP, class symbols. How it is done:
Example 111: Brief Description of ASK1 TR-FRET Assay The protein kinase inhibitory activity of the compounds described herein were tested using the ASK1/MAP3K5 assay by Reaction Biology Corp. (Malvern, PA). The assay procedure follows (and is also available on the Reaction Biology Corp. website). Base Reaction Buffer: 20 mM Hepes (pH 7.5), 10 mM MgCl2, 1 mM EGTA, 0.02% Brij35, 0.02 mg/mL BSA, 0.1 mM Na3VO4, 2 mM DTT, 1% DMSO; Substrate: 20 μM of myelin basic protein (MBP) and 10 μM ATP; Protein kinase: ASK1/MAP3K5. Reaction Procedure: • 1. Prepare indicated substrate in freshly prepared Base Reaction Buffer. • 2. Deliver any required cofactors to the substrate solution. • 3. Deliver indicated kinase into the substrate solution and gently mix. • 4. Deliver compounds in DMSO into the kinase reaction mixture by Acoustic; technology (Echo550; nanoliter range), incubate for 20 minutes at room temperature. • 5. Deliver ^33P-ATP (specific activity 10 μCi/μL) into the reaction mixture to initiate the reaction. • 6. Incubate kinase reaction for 2 hours at room temperature. • 7. Reactions are spotted onto P81 ion exchange paper. • 8. Detect kinase activity by filter-binding method.
(In general: TR-FRET usually uses a lanthanide donor and a delayed reading to cut background.)

For assay [1], the target named is T2, ASK1 T838 auto phosphorylation (Homo sapiens, UniProt Q99683).
T2 sequence (Q99683 1-1374): T1 sequence (Q99683 1-1374)
The assay is described as follows: ASK1 (AUTO PHOS T838) assay, MSD format, in HEK-293T cells transfected with ASK1-V5. The assay is classed as cell-based. To be noted: ASK1 T838 auto phosphorylation in HEK-293T cells, 1 hr compound incubation; class symbols. How it is done:
Example 112: Brief Description of ASK1(AUTO PHOS T838) Assay ASK1 T838 auto phosphorylation was measured in HEK-293T cells using MSD assay format. HEK 293T cells were seeded in 15 cm plates at a density of 18 million cells and 20 mL DMEM with 10% FBS, Pen/Strep media. The plates were incubated at 37° C. overnight. Media on plates was changed to OPTI-MEM, serum free media and cells were transfected with 9 μg of ASK1-V5 tagged full length plasmid using Lipofectamine 2000 (Invitrogen) and the plates were incubated at 37° C. overnight. Cells were trypsinized, counted on Nexcellometer and plated into 96 well tissue culture plates with 100,000 cells/well and 200 μL media. Cells were incubated for 4 hr at 37° C. then ASK1 compounds were added using a HP 300e. Compounds were tested at 20 μM with 3 fold, 10 point dilution points then incubated for 1 hr at 37° C. A lysis buffer (Cell Signaling) was prepared with protease and phosphatase inhibitor and maintained at 4° C. until use. Media from cells was discarded and 120 μL of cold lysis buffer was added to the cells, the plate was shaken 4° C. for 1 hr. Lysate was mixed using Apricot liquid handler; aspirating up and down 16 times at high speed using 50 μL volume. […] Plates were then incubated on a plate shaker overnight at 4° C. Plates were washed 3× with MSD wash buffer and 50 μL of rabbit anti-pASK1 T838 antibody was added to the wells and incubated for 2 hr at room temperature on a plate shaker. Plates were then washed and 50 μL of goat anti-rabbit sulfa-tag (1:500 dilution) was added to wells, and incubated for 1 hr at room temperature on a plate shaker. […] Plates were immediately read on a MSD Instrument Reader where chemoluminescence signal was measured. Data was analyzed using Graph Pad or Genedata, the data was normalized and plotted, % activity versus log of compound concentration. The IC50 values were obtained from a 4 parameter fit. The compounds described herein were tested for in the above cell-based assay.

pIC50: −log10 of the molar value. Bounds are passed on as bounds.

Take `CCOc1nn(C)cc1C(=O)Nc1cccc(-c2nncn2C(C)C)n1` [Example 3, 3-Ethoxy-N-(6-(4-isopropyl-4H-1,2,4-triazol-3-yl)pyridin-2-yl)-1-methyl-1H-pyrazole-4-carboxamide]: the pIC50 (usually the negative decadic logarithm of the IC50, by convention in mol/L) at ASK1/MAP3K5 is not below 7.00; in assay [1], not below 6.00.

`COCc1nn(C)cc1C(=O)Nc1cccc(-c2nncn2C(C)C)n1` [Example 4, N-(6-(4-Isopropyl-4H-1,2,4-triazol-3-yl)pyridin-2-yl)-3-(methoxymethyl)-1-methyl-1H-pyrazole-4-carboxamide]: the pIC50 is 6.00 to 7.00 against ASK1/MAP3K5 and 5.00 to 6.00 in assay [1].

On to `CC(C)n1cnnc1-c1cccc(NC(=O)c2cn(C)nc2C(F)(F)F)n1` [Example 5, N-(6-(4-Isopropyl-4H-1,2,4-triazol-3-yl)pyridin-2-yl)-1-methyl-3-(trifluoromethyl)-1H-pyrazole-4-carboxamide], for which the results for the negative logarithm of the IC50 (pIC50) (against ASK1/MAP3K5; in assay [1]) were 6.00 to 7.00 and 5.00 to 6.00, respectively.

Turning to `CC(C)n1cnnc1-c1cccc(NC(=O)c2cn(C)nc2C(F)F)n1` [Example 6, 3-(Difluoromethyl)-N-(6-(4-isopropyl-4H-1,2,4-triazol-3-yl)pyridin-2-yl)-1-methyl-1H-pyrazole-4-carboxamide], the values for the negative logarithm of the IC50 (pIC50) (on ASK1/MAP3K5; in assay [1]) were 6.00 to 7.00 and not below 6.00, respectively.

Take `COc1nn(Cc2ccccc2)cc1C(=O)Nc1cccc(-c2nncn2C(C)C)n1` [Example 8, 1-Benzyl-N-(6-(4-isopropyl-4H-1,2,4-triazol-3-yl)pyridin-2-yl)-3-methoxy-1H-pyrazole-4-carboxamide]: the negative-log IC50 (pIC50) against ASK1/MAP3K5 is not below 7.00; in assay [1], not below 6.00.

In the case of `CC(C)n1cnnc1-c1cccc(NC(=O)c2cnn(C(C)(C)C)c2)n1` [Example 9, 1-(tert-Butyl)-N-(6-(4-isopropyl-4H-1,2,4-triazol-3-yl)pyridin-2-yl)-1H-pyrazole-4-carboxamide], the results for the pIC50 (on ASK1/MAP3K5; in assay [1]) were 6.00 to 7.00 and not below 6.00, respectively.

As for `COc1nn(C)cc1C(=O)Nc1cccc(-c2nncn2[C@H](C)C(F)(F)F)n1` [Example 11, (R)-3-Methoxy-1-methyl-N-(6-(4-(1,1,1-trifluoropropan-2-yl)-4H-1,2,4-triazol-3-yl)pyridin-2-yl)-1H-pyrazole-4-carboxamide], the pIC50 on ASK1/MAP3K5 is 6.00 to 7.00; in assay [1] it was not below 6.00.

Turning to `COc1nn(C)cc1C(=O)Nc1cccc(-c2nncn2[C@@H](C)C(F)(F)F)n1` [Example 12, (S)-3-Methoxy-1-methyl-N-(6-(4-(1,1,1-trifluoropropan-2-yl)-4H-1,2,4-triazol-3-yl)pyridin-2-yl)-1H-pyrazole-4-carboxamide], the pIC50 against ASK1/MAP3K5 was not below 7.00; in assay [1], not below 6.00.

For the compound `CCn1cc(C(=O)Nc2cccc(-c3nncn3C(C)C(F)(F)F)n2)c(OC)n1` (stereo not drawn) [Example 13, 1-Ethyl-3-methoxy-N-(6-(4-(1,1,1-trifluoropropan-2-yl)-4H-1,2,4-triazol-3-yl)pyridin-2-yl)-1H-pyrazole-4-carboxamide], the figures for the negative logarithm of the IC50 (pIC50) (against ASK1/MAP3K5; in assay [1]) were not below 7.00 and not below 6.00, respectively.

Consider `COCc1nn(C)cc1C(=O)Nc1cccc(-c2nncn2[C@@H](C)C(F)(F)F)n1` [Example 14], for which the values for the pIC50 (on ASK1/MAP3K5; in assay [1]) were 6.00 to 7.00 and not below 6.00, respectively.

Regarding `CCn1cc(C(=O)Nc2cccc(-c3nncn3[C@@H](C)C(F)(F)F)n2)c(OC)n1` [Example 15, (S)-1-Ethyl-3-methoxy-N-(6-(4-(1,1,1-trifluoropropan-2-yl)-4H-1,2,4-triazol-3-yl)pyridin-2-yl)-1H-pyrazole-4-carboxamide], the pIC50 was not below 7.00 against ASK1/MAP3K5 and not below 6.00 in assay [1].

Consider `CCOc1nn(C)cc1C(=O)Nc1cccc(-c2nncn2[C@@H](C)C(F)(F)F)n1` [Example 16, (S)-3-Ethoxy-1-methyl-N-(6-(4-(1,1,1-trifluoropropan-2-yl)-4H-1,2,4-triazol-3-yl)pyridin-2-yl)-1H-pyrazole-4-carboxamide], for which the figures for the pIC50 (against ASK1/MAP3K5; in assay [1]) were not below 7.00 and not below 6.00, respectively.

Consider `COc1nn(C)cc1C(=O)Nc1cccc(-c2nncn2C2CCC2)n1` [Example 17, N-(6-(4-Cyclobutyl-4H-1,2,4-triazol-3-yl)pyridin-2-yl)-3-methoxy-1-methyl-1H-pyrazole-4-carboxamide], for which the pIC50 was not below 7.00 against ASK1/MAP3K5 and not below 6.00 in assay [1].

Regarding `COc1nn(C)cc1C(=O)Nc1cccc(-c2nncn2C2CC2)n1` [Example 18, N-(6-(4-Cyclopropyl-4H-1,2,4-triazol-3-yl)pyridin-2-yl)-3-methoxy-1-methyl-1H-pyrazole-4-carboxamide], the pIC50 was not below 7.00 against ASK1/MAP3K5 and not below 6.00 in assay [1].

In the case of `COc1nn(C)cc1C(=O)Nc1cccc(-c2nncn2C2CC(F)(F)C2)n1` [Example 19, N-(6-(4-(3,3-Difluorocyclobutyl)-4H-1,2,4-triazol-3-yl)pyridin-2-yl)-3-methoxy-1-methyl-1H-pyrazole-4-carboxamide], the results for the negative logarithm of the IC50 (pIC50) (against ASK1/MAP3K5; in assay [1]) were not below 7.00 and not below 6.00, respectively.

Consider `COc1nn(C)cc1C(=O)Nc1cccc(-c2nncn2C2CCCC2)n1` [Example 20, N-(6-(4-Cyclopentyl-4H-1,2,4-triazol-3-yl)pyridin-2-yl)-3-methoxy-1-methyl-1H-pyrazole-4-carboxamide], for which the pIC50 was not below 7.00 on ASK1/MAP3K5 and not below 6.00 in assay [1].

As to `COc1nn(C)cc1C(=O)Nc1cccc(-c2nncn2C(C)(C)C)n1` [Example 21, N-(6-(4-(tert-Butyl)-4H-1,2,4-triazol-3-yl)pyridin-2-yl)-3-methoxy-1-methyl-1H-pyrazole-4-carboxamide], the negative logarithm of the IC50 (pIC50) at ASK1/MAP3K5 is not below 7.00; in assay [1], not below 6.00.

With `C[C@H](n1cnnc1-c1cccc(NC(=O)c2cn(C)nc2C(F)F)n1)C(F)(F)F` [Example 22, (S)-3-(Difluoromethyl)-1-methyl-N-(6-(4-(1,1,1-trifluoropropan-2-yl)-4H-1,2,4-triazol-3-yl)pyridin-2-yl)-1H-pyrazole-4-carboxamide], the negative-log IC50 (pIC50) (on ASK1/MAP3K5; in assay [1]) was 5.00 to 6.00 each time.
